Assay results: ChEMBL document CHEMBL5036330, “Discovery of 8,9-seco-ent-Kaurane Diterpenoids as Potential Leads for the Treatment of Triple-Negative Breast Cancer” (J Med Chem, 2021)
pIC50: −log10 of the molar value. Activity calls are given as the source filed them. The rule behind the calls is not given here.

Legend:
MDA-MB-231 [1] = assay: Cytotoxicity against human MDA-MB-231 cells assessed as reduction in cell viability incubated for 96 hrs by MTT method; format: functional, cell-based; settings: MDA-MB-231, 96 h
MDA-MB-468 [2] = assay: Anticancer activity in human MDA-MB-468 cells xenografted mouse model assessed as reduction in tumor weight at 10 mg/kg, ip treated for 33 days; format: functional; settings: MDA-MB-468, ip, 792 h, time 33 day
MDA-MB-468 [3] = assay: Effect on PI3K expression in human MDA-MB-468 cells measured at 1 to 5 uM after 24 hrs by Western blot analysis; format: functional, cell-based; settings: dose 1-5 µM
MDA-MB-231 [4] = assay: Induction of cell cycle arrest in human MDA-MB-231 cells assessed as accumulation of cells at G2 phase at 2 uM measured after 24 hrs by flow cytometry (reference value: 20.2%); format: functional
MDA-MB-231 [5] = assay: Effect on Akt expression in human MDA-MB-231 cells measured at 1 to 5 uM after 24 hrs by Western blot analysis; format: functional, cell-based; settings: dose 1-5 µM
MDA-MB-468 [6] = assay: Anticancer activity in human MDA-MB-468 cells xenografted mouse model assessed as tumor growth inhibition at 10 mg/kg, ip treated for 33 days relative to control; format: functional, organism-based; settings: time 33.0 day
MCF-10A = assay: Cytotoxicity against human MCF-10A cells assessed as reduction in cell viability incubated for 96 hrs by MTT method; format: cell-based
MDA-MB-468 [7] = assay: Induction of mitochondrial depolarization in human MDA-MB-468 cells assessed as aggregates at 2 uM in dark by JC10 staining based fluorescence microscopy (reference value: 91.6%); format: functional
MDA-MB-468 [8] = assay: Induction of apoptosis in human MDA-MB-468 cells assessed as early apoptotic cells at 1 uM measured after 24 hrs by Annexin V/Propidium iodide stain based Flow cytometry (reference value: 7.98%); format: functional
[9] = Selectivity index, ratio of IC50 for HEK293 cells to IC50 for human MBA-MB-231 cells; format: toxicity; settings: HEK293 cells versus MBA-MB-231 cells, read-out: Selectivity Index
MDA-MB-231 [10] = assay: Induction of mitochondrial depolarization in human MDA-MB-231 cells assessed as monomers at 1 uM in dark by JC10 staining based fluorescence microscopy (reference value: 5.6%); format: functional
MDA-MB-231 [11] = assay: Induction of apoptosis in human MDA-MB-231 cells assessed as increase in cleaved PARP at 1 to 5 uM measured after 24 hrs by Western blot analysis; format: functional, cell-based; settings: dose 1-5 µM
MDA-MB-468 [12] = assay: Antiproliferative activity against human MDA-MB-468 cells assessed as supression of long term proliferative capacity measured for 2 weeks by Colony formation assay; format: functional, cell-based; settings: dose 0.05-0.2 µM
L02 = assay: Cytotoxicity against human L02 cells assessed as reduction in cell viability incubated for 96 hrs by MTT method; format: cell-based; settings: L02, 96 h
MDA-MB-231 [13] = assay: Antiinvasive activity against in human MDA-MB-231 cells assessed as reduction in beta-catenin expression measured upto 72 hrs by Western blot analysis; format: functional, cell-based; settings: dose 0.1-0.2 µM, time hrs <=72
[14] = Toxicity in NOD/SCID mouse assessed as cytotoxicity in spleen at 10 mg/kg, ip treated for 33 days by H&E staining analysis; format: organism-based; settings: in vivo, 792 h, time 33 day
MDA-MB-231 [15] = assay: Induction of cell cycle arrest in human MDA-MB-231 cells assessed as accumulation of cells at S phase at 2 uM measured after 24 hrs by flow cytometry (reference value: 32.2%); format: functional
MDA-MB-468 [16] = assay: Induction of apoptosis in human MDA-MB-468 cells assessed as late apoptotic cells at 1 uM measured after 24 hrs by Annexin V/Propidium iodide stain based Flow cytometry (reference value: 3.98%); format: functional
MDA-MB-231 [17] = assay: Induction of mitochondrial depolarization in human MDA-MB-231 cells assessed as monomers at 2 uM in dark by JC10 staining based fluorescence microscopy (reference value: 5.6%); format: functional
MDA-MB-231 [18] = assay: Effect on PI3K expression in human MDA-MB-231 cells measured at 1 to 5 uM after 24 hrs by Western blot analysis; format: functional, cell-based; settings: dose 1-5 µM
HEK293 = assay: Cytotoxicity against HEK-293 cells assessed as reduction in cell viability incubated for 96 hrs by MTT method; format: cell-based; settings: Homo sapiens, HEK293, 96 h
MDA-MB-468 [19] = assay: Induction of apoptosis in human MDA-MB-468 cells assessed as increase in cleaved caspase 3 at 1 to 5 uM measured after 24 hrs by Western blot analysis; format: functional, cell-based; settings: dose 1-5 µM
MDA-MB-231 [20] = assay: Induction of cell cycle arrest in human MDA-MB-231 cells assessed as accumulation of cells at S phase at 5 uM measured after 24 hrs by flow cytometry (reference value: 32.2%); format: functional
MDA-MB-231 [21] = assay: Antiinvasive activity against in human MDA-MB-231 cells assessed as reduction in MMP9 expression measured upto 72 hrs by Western blot analysis; format: functional, cell-based; settings: dose 0.1-0.2 µM, time hrs <=72
MDA-MB-231 [22] = assay: Induction of cell cycle arrest in human MDA-MB-231 cells assessed as accumulation of cells at S phase at 1 uM measured after 24 hrs by flow cytometry (reference value: 32.2%); format: functional
[23] = Selectivity index, ratio of IC50 for human LO2 cells to IC50 for human MBA-MB-231 cells; format: functional
MDA-MB-231 [24] = assay: Induction of cell cycle arrest in human MDA-MB-231 cells assessed as accumulation of cells at G2 phase at 5 uM measured after 24 hrs by flow cytometry (reference value: 20.2%); format: functional
MDA-MB-468 [25] = assay: Induction of apoptosis in human MDA-MB-468 cells assessed as late apoptotic cells at 5 uM measured after 24 hrs by Annexin V/Propidium iodide stain based Flow cytometry (reference value: 3.98%); format: functional
[26] = Toxicity in NOD/SCID mouse assessed as cytotoxicity in kidney at 10 mg/kg, ip treated for 33 days by H&E staining analysis; format: organism-based; settings: in vivo, 792 h, time 33 day
MDA-MB-468 [27] = assay: Induction of mitochondrial depolarization in human MDA-MB-468 cells assessed as aggregates at 1 uM in dark by JC10 staining based fluorescence microscopy (reference value: 91.6%); format: functional
MDA-MB-231 [28] = assay: Induction of apoptosis in human MDA-MB-231 cells assessed as decrease in Bcl2/Bax ratio at 1 to 5 uM measured after 24 hrs by Western blot analysis; format: functional, cell-based; settings: dose 1-5 µM
MDA-MB-468 [29] = assay: Effect on mTOR expression in human MDA-MB-468 cells measured at 1 to 5 uM after 24 hrs by Western blot analysis; format: functional, cell-based; settings: dose 1-5 µM
MDA-MB-468 [30] = assay: Inhibition of Akt phosphorylation in human MDA-MB-468 cells measured after 24 hrs by Western blot analysis; format: cell-based; settings: dose 1-5 µM
MDA-MB-231 [31] = assay: Antiinvasive activity against in human MDA-MB-231 cells measured at 0.2 uM upto 72 hrs by transwell invasion assay relative to control; format: functional; settings: MDA-MB-231, 72 h, time hrs <=72
[32] = biological target: RAC-alpha serine/threonine-protein kinase (Homo sapiens) (UniProt P31749); assay: Binding affinity to Akt1 in human MDA-MB-231 cells assessed as shifted melting curve at 2 uM by CETSA assay; format: cell-based
RAC-alpha serine/threonine-protein kinase (Homo sapiens), sequence (P31749 whole entry): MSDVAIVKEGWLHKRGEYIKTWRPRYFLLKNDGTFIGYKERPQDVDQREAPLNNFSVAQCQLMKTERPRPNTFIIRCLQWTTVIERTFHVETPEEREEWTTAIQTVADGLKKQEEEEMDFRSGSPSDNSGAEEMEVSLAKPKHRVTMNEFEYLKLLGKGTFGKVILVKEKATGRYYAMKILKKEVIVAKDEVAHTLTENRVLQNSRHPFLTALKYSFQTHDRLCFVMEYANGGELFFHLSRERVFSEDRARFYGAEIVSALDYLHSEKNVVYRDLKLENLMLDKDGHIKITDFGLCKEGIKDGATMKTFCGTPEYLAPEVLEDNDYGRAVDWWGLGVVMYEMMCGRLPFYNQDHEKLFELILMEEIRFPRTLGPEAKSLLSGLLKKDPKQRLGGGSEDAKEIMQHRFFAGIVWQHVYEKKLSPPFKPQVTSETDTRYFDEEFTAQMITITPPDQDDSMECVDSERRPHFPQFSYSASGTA

MDA-MB-468 [33] = assay: Induction of cell cycle arrest in human MDA-MB-468 cells assessed as accumulation of cells at G1 phase at 5 uM measured after 24 hrs by flow cytometry (reference value: 26.6%); format: functional
[34] = Toxicity in NOD/SCID mouse assessed as cytotoxicity in heart at 10 mg/kg, ip treated for 33 days by H&E staining analysis; format: organism-based; settings: in vivo, 792 h, time 33 day

C=C1C(=O)C2=C[C@H]1CCC(=O)[C@]1(C)[C@H](O)CCC(C)(C)[C@H]1C[C@H]2O
pIC50 (MDA-MB-231 [1]): 7.11
inhibition in vivo at 10 mg/kg (MDA-MB-468 [2]): 58%
Activity (MDA-MB-468 [3]): inactive
Activity (MDA-MB-231 [4]): 31.7%
Activity (MDA-MB-231 [5]): inactive
Activity (MDA-MB-468 [6]): Active
pIC50 (MCF-10A): 5.98
Activity (MDA-MB-468 [7]): 21.5%
Activity (MDA-MB-468 [8]): 29.7%
selectivity ratio [9]: 26.2
Activity (MDA-MB-231 [10]): 18.9%
Activity (MDA-MB-231 [11]): Active
Activity (MDA-MB-468 [12]): Active
pIC50 (L02): < 5.30
Activity (MDA-MB-231 [13]): Active
Activity [14]: Non-Toxic
Activity (MDA-MB-231 [15]): 34.5%
Activity (MDA-MB-468 [16]): 10.1%
Activity (MDA-MB-231 [17]): 43.1%
Activity (MDA-MB-231 [18]): inactive
pIC50 (HEK293): 5.71
Activity (MDA-MB-468 [19]): Active
Activity (MDA-MB-231 [20]): 35.1%
Activity (MDA-MB-231 [21]): Active
Activity (MDA-MB-231 [22]): 37%
Selectivity Index [23]: >66.7
Activity (MDA-MB-231 [24]): 37.4%
Activity (MDA-MB-468 [25]): 25.9%
Activity [26]: Non-Toxic
Activity (MDA-MB-468 [27]): 61.6%
Activity (MDA-MB-231 [28]): Active
Activity (MDA-MB-468 [29]): inactive
inhibition (MDA-MB-468 [30]): Active
inhibition at 0.2 µM (MDA-MB-231 [31]): 80%
Activity [32]: Active
Activity (MDA-MB-468 [33]): 16.1%
Activity [34]: Non-Toxic
